Key:
D(3) dopamine receptor = D(3) dopamine receptor (Homo sapiens, UniProt P35462); experiment: Displacement of [3H]-N-methylspiperone from recombinant human D3R expressed in HEK cell membranes after 90 mins by scintillation counting method
[1] = target: Sodium-dependent dopamine transporter (Homo sapiens, UniProt Q01959); experiment: Displacement of [3H]-WIN35428 from recombinant human DAT expressed in HEK cell membranes after 90 mins by scintillation counting method
Sodium-dependent dopamine transporter, sequence (Q01959 whole entry): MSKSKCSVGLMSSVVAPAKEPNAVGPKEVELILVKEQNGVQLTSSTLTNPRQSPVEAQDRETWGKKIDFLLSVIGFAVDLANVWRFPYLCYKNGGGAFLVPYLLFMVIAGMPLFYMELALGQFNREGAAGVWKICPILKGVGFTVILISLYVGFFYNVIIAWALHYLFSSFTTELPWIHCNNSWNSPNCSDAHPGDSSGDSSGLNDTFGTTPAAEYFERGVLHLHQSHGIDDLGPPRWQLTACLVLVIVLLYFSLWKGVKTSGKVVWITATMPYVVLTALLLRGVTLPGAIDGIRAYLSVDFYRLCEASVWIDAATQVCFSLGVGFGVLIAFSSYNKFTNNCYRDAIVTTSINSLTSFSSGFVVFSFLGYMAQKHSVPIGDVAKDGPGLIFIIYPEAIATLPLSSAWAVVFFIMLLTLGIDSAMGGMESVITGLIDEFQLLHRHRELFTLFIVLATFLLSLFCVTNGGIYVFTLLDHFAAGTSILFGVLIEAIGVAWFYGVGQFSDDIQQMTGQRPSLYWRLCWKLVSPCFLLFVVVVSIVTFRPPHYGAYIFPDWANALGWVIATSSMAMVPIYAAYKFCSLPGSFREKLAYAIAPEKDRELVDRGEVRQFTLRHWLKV

D(3) dopamine receptor, sequence (P35462 as listed by the source): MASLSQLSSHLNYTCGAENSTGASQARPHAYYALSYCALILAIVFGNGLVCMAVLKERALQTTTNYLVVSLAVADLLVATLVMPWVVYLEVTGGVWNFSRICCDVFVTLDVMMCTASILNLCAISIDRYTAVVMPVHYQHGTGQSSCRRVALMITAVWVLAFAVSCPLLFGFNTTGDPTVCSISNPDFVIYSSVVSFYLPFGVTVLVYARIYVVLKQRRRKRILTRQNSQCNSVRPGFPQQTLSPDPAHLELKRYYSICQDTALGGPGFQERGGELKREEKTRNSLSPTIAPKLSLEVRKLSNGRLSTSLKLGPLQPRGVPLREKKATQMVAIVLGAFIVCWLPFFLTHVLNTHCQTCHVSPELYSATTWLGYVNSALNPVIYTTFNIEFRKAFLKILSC

CCCCCCCCCCC[C@@H]1CCN[C@H](C(=O)NCC(O)CO)C1 (some centres not stated)
Ki (D(3) dopamine receptor): 4.7 µM | Ki [1]: 1.8 µM

— BindingDB's records for doi:10.1021/acs.jmedchem.8b00401 (2019)
